Read-outs that look alike come from different tables or passages of the source.
Columns and labels:
[1] = test system: acutely dissociated and purified rat OPCs; experiment: Acute OL differentiation assay (MBP expression/cell, immunofluorescent image quantification); assay type: cell-based; conditions: for activation at 2 µM / activation at 10 µM / activation at 0.4 µM / activation at 0.08 µM: sheet "All OLga data"; for activation at 0.08 µM: test compound at 0.08 uM, read-out: 0.08 uM (% Quet)
How it was run: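 This acute differentiation assay used purified rat OPCs from postnatal day 6–7 pups, seeded into PDL/laminin-coated 96-well plates in differentiation medium lacking PDGF and FGF. Compounds were applied in quadruplicate after a 1–2 h preincubation at 37 °C, 10 % CO2, with 0.1 % DMSO negative and 40 ng/ml T3 positive controls in eight wells. After fixation on DIV4, anti-MBP immunofluorescence images yielded MBP expression/cell.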

[2] = test system: expanded OPCs; experiment: cells; conditions: for viability at 0.1 µM / viability at 1 µM / viability at 10 µM: Rattus norvegicus, 72 h; for 0.1 µM (% DMSO) / 1 µM (% DMSO) / 10 µM (% DMSO): alamarBlue viability of expanded OPCs, relative to DMSO control; for 0.1 µM (% DMSO): compound at 0.1 µM; for 1 µM (% DMSO): compound at 1 µM; for 10 µM (% DMSO): compound at 10 µM
How it was run: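 Toxicity screen: compounds added at 0.1, 1 and 10 µM to PDGF-AA-expanded OPCs in 96-well plates, 3-day incubation at 37 °C, 10% CO2, then alamarBlue 1:10 for 4 h with fluorescence readout. Results set screening doses of 10/2, 2/0.4 or 0.4/0.08 µM.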

[3] = Rattus norvegicus, test compound at 2 uM, NCC library screen, relative to quetiapine, read-out: 2 uM (% Quet)
[4] = Rattus norvegicus, test compound at 10 uM, NCC library screen, relative to quetiapine, read-out: 10 uM (% Quet)
[5] = read-out: 0.1 µM (% DMSO), alamarBlue viability, NCC library compound at 0.1 µM, sheet "All Tox data"
[6] = read-out: 1 µM (% DMSO), alamarBlue viability, NCC library compound at 1 µM, sheet "All Tox data"
[7] = read-out: 10 µM (% DMSO), alamarBlue viability, NCC library compound at 10 µM, sheet "All Tox data"
[8] = Rattus norvegicus, test compound at 0.4 uM, MBP expression relative to quetiapine, NCC library screen, read-out: 0.4 uM (% Quet)
[9] = Rattus norvegicus, test compound at 2 uM, MBP expression relative to quetiapine, NCC library screen, read-out: 2 uM (% Quet)
[10] = Rattus norvegicus, 2 uM test compound, relative to quetiapine, read-out: OL differentiation, 2 uM (% Quet)
[11] = Rattus norvegicus, 10 uM test compound, relative to quetiapine, read-out: OL differentiation, 10 uM (% Quet)
[12] = read-out: 0.1 µM (% DMSO), alamarBlue viability of expanded OPCs, compound at 0.1 µM, sheet All Tox data
[13] = read-out: 1 µM (% DMSO), alamarBlue viability of expanded OPCs, compound at 1 µM, sheet All Tox data
[14] = read-out: 10 µM (% DMSO), alamarBlue viability of expanded OPCs, compound at 10 µM, sheet All Tox data
[15] = Rattus norvegicus, NCC library screen, relative to quetiapine
[16] = Rattus norvegicus, test compound at 0.4 uM, NCC library screen, relative to quetiapine, read-out: 0.4 uM (% Quet)
[17] = Rattus norvegicus, test compound at 10 uM, MBP expression relative to quetiapine, NCC library screen, read-out: 10 uM (% Quet)
[18] = Rattus norvegicus, 0.4 uM test compound, relative to quetiapine, read-out: OL differentiation, 0.4 uM (% Quet)
[19] = Rattus norvegicus, MBP expression relative to quetiapine, NCC library screen

Structure (SMILES)	activation at 2 µM [1, 3] [%]	activation at 10 µM [1, 4] [%]	0.1 µM (% DMSO) [2] [% DMSO]	1 µM (% DMSO) [2] [% DMSO]	10 µM (% DMSO) [2] [% DMSO]	activation at 2 µM [1, 10] [%]	viability at 0.1 µM [2, 12] [%]	viability at 1 µM [2, 13] [%]	viability at 10 µM [2, 14] [%]	other results
CCc1nc(N)nc(N)c1-c1ccc(Cl)cc1 [Pyrimethamine]	-12.3	-35.3								viability at 0.1 µM [2, 5]: 100%; viability at 1 µM [2, 6]: 99.6%; viability at 10 µM [2, 7]: 66.5%
COC(=O)[C@H](c1ccccc1Cl)N1CCc2sccc2C1 [Clopidogrel]			103.8	94.8	75.7					activation at 0.4 µM [1, 8]: -4%; activation at 2 µM [1, 9]: -15%
CCN(CC)CC(=O)Nc1c(C)cccc1C [Lidocaine]						-0.03	84.8	86	85.5	activation at 10 µM [1, 11]: 17.6%
NC(=O)c1cccnc1 [Niacinamide]	-37.7	-38.5								viability at 0.1 µM [2, 5]: 90.4%; viability at 1 µM [2, 6]: 91%; viability at 10 µM [2, 7]: 80.9%
CN(C)C(=O)Oc1ccc[n+](C)c1 [Pyridostigmine Bromide]	-0.46	21.5	92.2	86.7	84.4					
O=c1[nH]cc(F)c(=O)[nH]1 [5-Fluorouracil]			80.9	26.6	12.2					activation at 0.08 µM [1, 15]: -10.8%; activation at 0.4 µM [1, 16]: -21.3%
NC[C@H]1CC[C@H](C(=O)Oc2ccc(CCC(=O)O)cc2)CC1 [Cetraxate]						-6.2	103	92.1	104	activation at 10 µM [1, 11]: -5.4%
CN1CCN(C(=O)O[C@H]2c3nccnc3C(=O)N2c2ccc(Cl)cn2)CC1 [Eszopiclone]			103.0	99.5	106.9					activation at 2 µM [1, 9]: -2.9%; activation at 10 µM [1, 17]: -10.2%
CCCCc1oc2ccccc2c1C(=O)c1cc(I)c(OCCN(CC)CC)c(I)c1 [Amiodarone]										activation at 0.08 µM [1, 15]: 44.2%; viability at 0.1 µM [2, 5]: 74.9%; viability at 1 µM [2, 6]: 8.8%; viability at 10 µM [2, 7]: 8.6%
O=c1[nH]c(=O)n(C2CCCO2)cc1F (centres unmarked) [Tegafur]						-23.9	88.4	92.6	99.3	activation at 10 µM [1, 11]: -28%
CCc1cccc2c3c([nH]c12)C(CC)(CC(=O)O)OCC3 (centres unmarked) [Etodolac]			98.7	88.3	92.3					activation at 2 µM [1, 9]: 20.9%; activation at 10 µM [1, 17]: 7.5%
CN1CC(=O)N2[C@H](c3ccc4c(c3)OCO4)c3[nH]c4ccccc4c3C[C@@H]2C1=O [Tadalafil]						21.4	99.2	93	93.9	activation at 10 µM [1, 11]: -16%
NC12CC3CC(CC(C3)C1)C2 [Amantadine]	-21.4	-19.9	89.6	86.9	77.6					
COC(=O)Nc1nc2cc(C(=O)c3ccc(F)cc3)ccc2[nH]1 [Flubendazole]						-188	74.4	69.3	43.7	activation at 0.4 µM [1, 18]: -62.9%
NC(N)=Nc1nc(CSCCC(N)=NS(N)(=O)=O)cs1 [Famotidine]						-2.2	92.3	96.4	102	activation at 10 µM [1, 11]: 17.8%
C[C@]12CC[C@H](O)CC1=CC[C@@H]1[C@@H]2CC[C@]2(C)C(=O)CC[C@@H]12 [Dehydroepiandrosterone]	-23.8	-57.9								viability at 0.1 µM [2, 5]: 92%; viability at 1 µM [2, 6]: 87.5%; viability at 10 µM [2, 7]: 83.1%
C[C@H]1O[C@@H](O[C@H]2[C@@H](O)C[C@H](O[C@H]3[C@@H](O)C[C@H](O[C@H]4CC[C@@]5(C)[C@H](CC[C@@H]6[C@@H]5C[C@@H](O)[C@]5(C)[C@@H](C7=CC(=O)OC7)CC[C@]65O)C4)O[C@@H]3C)O[C@@H]2C)C[C@H](O)[C@@H]1O [Digoxin]	-10.3	22.8								viability at 0.1 µM [2, 5]: 103%; viability at 1 µM [2, 6]: 99.8%; viability at 10 µM [2, 7]: 106%
O=C(c1ccc(OCCN2CCCCC2)cc1)c1c(-c2ccc(O)cc2)sc2cc(O)ccc12 [Raloxifene, reference compound]			161.1	38.6	7.7					activation at 0.08 µM [1, 19]: 91.9%; activation at 0.4 µM [1, 8]: -62.1%; EC50 ([1]; Rattus norvegicus, average EC50 for induction of OL differentiation from independent biological replicates, eight concentrations): 100 nM; hit in OL differentiation assay, MRF-TMC ([1]; ● = confirmed hit in this paper's assay): ●
CNC(=C[N+](=O)[O-])NCCSCc1csc(CN(C)C)n1 [Nizatidine]						-1.7	92.6	89	96.6	activation at 10 µM [1, 11]: 13%
CC(=O)O[C@H]1C[C@@H]2CC[C@@H]3[C@H](CC[C@@]4(C)[C@H]3C[C@H]([N+]3(C)CCCCC3)[C@@H]4OC(C)=O)[C@@]2(C)C[C@@H]1[N+]1(C)CCCCC1 [Pancuronium]						14.7	83.3	83.2	88	activation at 10 µM [1, 11]: 8.2%
CC(C[N+](C)(C)C)OC(N)=O (centres unmarked) [Bethanechol]			87.6	93.0	88.2					activation at 2 µM [1, 9]: -1%; activation at 10 µM [1, 17]: -21.7%
CN1CCN2c3ncccc3Cc3ccccc3C2C1 (centres unmarked) [Mirtazapine]	-35.7									activation at 0.4 µM [1, 16]: -26.7%; viability at 0.1 µM [2, 5]: 94.4%; viability at 1 µM [2, 6]: 73%; viability at 10 µM [2, 7]: 60.1%
CNCCCN1c2ccccc2CCc2ccccc21 [Desipramine]			75.5	43.8	16.4					activation at 0.08 µM [1, 19]: 8.9%; activation at 0.4 µM [1, 8]: -5.3%
C=CC1=C(C(=O)O)N2C(=O)[C@@H](NC(=O)/C(=N\O)c3csc(N)n3)[C@H]2SC1 [Cefdinir]	13.5	23								viability at 0.1 µM [2, 5]: 86.5%; viability at 1 µM [2, 6]: 90.2%; viability at 10 µM [2, 7]: 84.8%
COc1ccc(OC)c(C(O)CNC(=O)CN)c1 (centres unmarked) [Midodrine]	-2.5	6.3	90.8	88.9	89.1					
CCOc1ccc2ccccc2c1C(=O)N[C@@H]1C(=O)N2[C@@H]1SC(C)(C)[C@@H]2C(=O)O [Nafcillin]	-20.5	0.11	104.4	94.8	90.0					
O=C1[C@H](CC[C@H](O)c2ccc(F)cc2)[C@@H](c2ccc(O)cc2)N1c1ccc(F)cc1 [Ezetimibe]						-114	93.7	87.4	48.7	activation at 0.4 µM [1, 18]: -41.3%
OC(c1cc(C(F)(F)F)nc2c(C(F)(F)F)cccc12)C1CCCCN1 (centres unmarked) [Mefloquine]			39.0	11.0	7.4					activation at 0.08 µM [1, 19]: -20.5%; activation at 0.4 µM [1, 8]: -134%
CCCC1O[C@@H]2C[C@H]3[C@@H]4CCC5=CC(=O)C=C[C@]5(C)[C@H]4[C@@H](O)C[C@]3(C)[C@]2(C(=O)CO)O1 (some centres unmarked) [Budesonide]			112.0	115.9	95.7					activation at 2 µM [1, 9]: 20.2%; activation at 10 µM [1, 17]: -2.2%
